Data from US20230183243A1, “HETEROARYL DERIVATIVES AND PHARMACEUTICAL COMPOSITION COMPRISING SAME AS ACTIVE INGREDIENT” (VORONOI INC., priority 2019, published 2023).

Legend:
[1] = tested on: MDA-MB-231 cells; experiment: Inhibition of proliferation of triple-negative breast cancer cells, CellTiter-Glo; format: cell-based; settings: Homo sapiens, 120 h; MDA-MB-231, cultured for 5 days
Protocol: Specifically, the following test was performed in order to evaluate the inhibitory activity of the compound according to the present invention against the cell proliferation in triple-negative breast cancer cells (TNBCs).
Cells were seeded in 180 μL of a culture broth at a density of 2,000 to 3,000 cells/well in a white clear bottom 96-well plate (Corning) according to the growth ability of each cell, and then cultured for 24 hours under conditions of 5% CO2 and 37° C. Thereafter, the compound was prepared by diluting a 10 mM stock solution three-fold with 100% DMSO at a total of 12 concentrations so that a peak concentration of the compound was in a range of 10 mM to 0.05 μM, and the diluted compound was then diluted in each cell culture medium so that a final concentration of the compound was in a range of 100 μM to 0.5 nM. 20 μL of a diluted solution diluted with a medium was added to the cell solution in which cells were seeded in the 96-well plate on the previous day so that a final concentration of the diluted solution was in a range of 10 μM to 0.05 nM. Each of the cells was cultured for 5 days. To check cell viability, a mixture provided in a CellTiter-Glo® Luminescent Cell Viability Assay Kit (Promega) was added to each of the cultured cell media, and cultured for another 10 minutes under a condition of 37° C. Then, a degree of luminescence (fluorescence) was measured. A degree of inhibition of the cell growth according to the treatment concentration of each of the compounds was calculated based on the fluorescence of the solvent control cells which were not treated with the compound.

[2] = target: T1, TTK (Homo sapiens, UniProt P33981); experiment: TTK enzyme activity, ADP-Glo kinase assay; format: biochemical; set-up: purchased SignalChem T20-10G; settings: purified human TTK, ATP 10 μM, 25° C., 2 hours
T1 sequence (P33981 1-857): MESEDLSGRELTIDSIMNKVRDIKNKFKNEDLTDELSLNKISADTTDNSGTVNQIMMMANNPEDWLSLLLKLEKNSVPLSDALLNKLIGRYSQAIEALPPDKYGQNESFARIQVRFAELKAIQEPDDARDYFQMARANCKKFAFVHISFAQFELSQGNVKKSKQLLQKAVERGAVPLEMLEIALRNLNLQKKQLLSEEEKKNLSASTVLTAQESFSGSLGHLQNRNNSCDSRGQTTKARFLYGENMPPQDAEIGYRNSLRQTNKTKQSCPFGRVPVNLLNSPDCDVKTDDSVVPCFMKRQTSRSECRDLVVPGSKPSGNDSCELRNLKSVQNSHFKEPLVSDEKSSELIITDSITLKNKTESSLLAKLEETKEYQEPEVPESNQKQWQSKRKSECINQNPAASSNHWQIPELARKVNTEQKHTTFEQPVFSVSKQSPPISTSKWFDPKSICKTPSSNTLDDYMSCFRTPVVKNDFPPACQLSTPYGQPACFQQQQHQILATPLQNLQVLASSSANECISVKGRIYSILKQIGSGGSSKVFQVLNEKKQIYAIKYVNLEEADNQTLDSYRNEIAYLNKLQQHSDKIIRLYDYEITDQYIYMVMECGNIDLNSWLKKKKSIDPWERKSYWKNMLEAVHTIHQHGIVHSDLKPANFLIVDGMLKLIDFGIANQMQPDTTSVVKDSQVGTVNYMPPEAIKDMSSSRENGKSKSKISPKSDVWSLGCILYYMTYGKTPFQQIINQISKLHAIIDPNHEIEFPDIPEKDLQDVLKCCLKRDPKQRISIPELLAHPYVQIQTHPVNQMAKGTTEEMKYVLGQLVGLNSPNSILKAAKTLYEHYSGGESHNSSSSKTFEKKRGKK
Protocol: To evaluate an inhibitory activity of the compound according to the present invention against TTK (MPS1), an experiment was performed as follows.
Each of the Example compounds was reacted with a purified human TTK (SignalChem #T20-10G) enzyme to evaluate an ability to inhibit an enzyme using a method as described below. A composition of 40 mM Tris-HCl (pH 7.4), 20 mM MgCl2, 0.5 mg/mL BSA, and 50 μM DTT was used as a reaction buffer, and all reactions of test substances were performed in the reaction buffer. […] In the test, purified ATP (10 μM) and an enzyme substrate (0.2 μg) were reacted with a human TTK (25 ng) enzyme at 25° C. for 2 hours, and the enzyme activity was determined using an in vitro ADP-Glo™ kinase assay (Promega). […] The degree of inhibition of the enzyme activity according to the treatment concentration of each of the compounds was calculated based on the fluorescence of the enzyme activity of the solvent control which was not treated with the compound.

Row | Structure (SMILES) | GI50 [1] | IC50 [2]
1 | COc1cc(N2CCCC2=O)ccc1Nc1nc(NCC(C)(C)C)c2c(C#N)c[nH]c2n1 [Example 77, 2-((2-methoxy-4-(2-oxopyrrolidin-1-yl)phenyl)amino)-4-(neopentylamino)-7H-pyrrolo[2,3-d] pyrimidine-5-carbonitrile] | 100 to 1000 nM | –
2 | CCC(C)Nc1nc(Nc2ccc(N3CCCC3=O)cc2OC)nc2[nH]cc(C#N)c12 (stereo in doubt) [Example 68, (S)-4-(sec-butylamino)-2-((2-methoxy-4-(2-oxopyrrolidin-1-yl)phenyl)amino)-7H-pyrrolo[2,3-d] pyrimidine-5-carbonitrile] | < 100 nM | < 50 nM
3 | COc1cc(-c2cnn(C3COC3)c2)ccc1Nc1nc(NC2CCCCC2)c2c(C#N)c[nH]c2n1 [Example 20, 4-(cyclohexylamino)-2-((2-methoxy-4-(1-(oxetan-3-yl)-1H-pyrazol-4-yl)phenyl)amino)-7H-pyrrolo[2,3-d] pyrimidine-5-carbonitrile] | < 100 nM | < 50 nM
4 | CCCCNc1nc(Nc2ccc(N3CCCC3=O)cc2OC)nc2[nH]cc(C#N)c12 [Example 67, 4-(butylamino)-2-((2-methoxy-4-(2-oxopyrrolidin-1-yl)phenyl)amino)-7H-pyrrolo[2,3-d] pyrimidine-5-carbonitrile] | < 100 nM | < 50 nM
5 | Cn1nccc1-c1ccc(Nc2nc(NC3CCCC3)c3c(C#N)c[nH]c3n2)c2c1CCO2 [Example 33, 4-(cyclopentylamino)-2-((4-(1-methyl-1H-pyrazol-5-yl)-2,3-dihydrobenzofuran-7-yl)amino)-7H-pyrrolo[2,3-d] pyrimidine-5-carbonitrile] | < 100 nM | 50 to 200 nM
6 | Cn1nccc1-c1ccc(Nc2nc(NC3CCC3)c3c(C#N)c[nH]c3n2)c2c1OCCO2 [Example 82, 4-(cyclobutylamino)-2-((8-(1-methyl-1H-pyrazol-5-yl)-2,3-dihydrobenzo[b][1,4]dioxin-5-yl)amino)-7H-pyrrolo[2,3-d] pyrimidine-5-carbonitrile] | < 100 nM | < 50 nM
7 | COc1cc(-c2ccnn2C)ccc1Nc1nc(OC2CCCCC2)c2c(C#N)c[nH]c2n1 [Example 45, 4-(cyclohexyloxy)-2-((2-methoxy-4-(1-methyl-1H-pyrazol-5-yl)phenyl)amino)-7H-pyrrolo[2,3-d] pyrimidine-5-carbonitrile] | < 100 nM | –
8 | COc1cc(-c2ccnn2C)ccc1Nc1nc(NC2CCCCC2)c2c(C(F)(F)F)c[nH]c2n1 [Example 6, N^4-cyclohexyl-N^2-(2-methoxy-4-(1-methyl-1H-pyrazol-5-yl)phenyl)-5-(trifluoromethy1)-7H-pyrrolo[2,3-d] pyrimidine-2,4-diamine] | > 1000 nM | –
9 | COc1cc(N2CCCC2=O)ccc1Nc1nc(O[C@H]2CC[C@@](C)(O)CC2)c2c(C#N)c[nH]c2n1 [Example 32, 4-(((1s,4s)-4-hydroxy-4-methylcyclohexyl)oxy)-2-((2-methoxy-4-(2-oxopyrrolidin-1-yl)phenyl)amino)-7H-pyrrolo[2,3-d] pyrimidine-5-carbonitrile 2,2,2-trifluoroacetate] | < 100 nM | < 50 nM
10 | COc1cc(N2CCOCC2=O)ccc1Nc1nc(NC2CCCCC2)c2c(C#N)c[nH]c2n1 [Example 81, 4-(cyclohexylamino)-2-((2-methoxy-4-(3-oxomorpholino)phenyl)amino)-7H-pyrrolo[2,3-d] pyrimidine-5-carbonitrile] | < 100 nM | –
11 | COc1cc(-c2ccc(F)nc2)ccc1Nc1nc(NC2CCCC2)c2c(C#N)c[nH]c2n1 [Example 42, 4-(cyclopentylamino)-2-((4-(6-fluoropyridin-3-yl)-2-methoxyphenyl)amino)-7H-pyrrolo[2,3-d] pyrimidine-5-carbonitrile] | < 100 nM | 50 to 200 nM
12 | CC(=O)N1CCN(Cc2ccc(-c3ccc(Nc4nc(NC5CCCCC5)c5c(C#N)c[nH]c5n4)cc3)cc2)CC1 [Example 21] | 100 to 1000 nM | 50 to 200 nM
13 | Cn1nccc1-c1ccc(Nc2nc(NC3CCCCC3)c3c(C#N)c[nH]c3n2)cc1 [Example 37, 4-(cyclohexylamino)-2-((4-(1-methyl-1H-pyrazol-5-yl)phenyl)amino)-7H-pyrrolo[2,3-d] pyrimidine-5-carbonitrile] | < 100 nM | –
14 | N#Cc1c[nH]c2nc(Nc3ccc(N4CCCC4=O)cc3)nc(NC3CCCCC3)c12 [Example 80, 4-(cyclohexylamino)-2-((4-(2-oxopyrrolidin-1-yl)phenyl)amino)-7H-pyrrolo[2,3-d] pyrimidine-5-carbonitrile] | < 100 nM | –
15 | COc1cc(-n2cc(C)nc2C)ccc1Nc1nc(NC2CCCCC2)c2c(C#N)c[nH]c2n1 [Example 34, 4-(cyclohexylamino)-2-((4-(2,4-dimethyl-1H-imidazol-1-yl)-2-methoxyphenyl)amino)-7H-pyrrolo[2,3-d] pyrimidine-5-carbonitrile] | < 100 nM | –
16 | COc1cc(-c2ccnn2C)ccc1Nc1nc(NC2CCCCC2)c2cc[nH]c2n1 [Example 4, N^4-cyclohexyl-N^2-(2-methoxy-4-(1-methyl-1H-pyrazol-5-yl)phenyl)-7H-pyrrolo[2,3-d] pyrimidine-2,4-diamine] | 100 to 1000 nM | –
17 | COc1cc(-c2ccnn2C)ccc1Nc1nc(NC2CCCCC2)c2c(Cl)c[nH]c2n1 [Example 5, 5-chloro-N^4-cyclohexyl-N^2-(2-methoxy-4-(1-methyl-1H-pyrazol-5-yl)phenyl)-7H-pyrrolo[2,3-d] pyrimidine-2,4-diamine] | > 1000 nM | –
18 | COc1cc(N2CCCC2=O)ccc1Nc1nc(NC2CCOCC2)c2c(C#N)c[nH]c2n1 [Example 74, 2-((2-methoxy-4-(2-oxopyrrolidin-1-yl)phenyl)amino)-4-((tetrahydro-2H-pyran-4-yl)amino)-7H-pyrrolo[2,3-d] pyrimidine-5-carbonitrile] | > 1000 nM | –
19 | CCOc1cc(N2CCCC2=O)ccc1Nc1nc(NC2CCCCC2)c2c(C#N)c[nH]c2n1 [Example 78, 4-(cyclohexylamino)-2-((2-ethoxy-4-(2-oxopyrrolidin-1-yl)phenyl)amino)-7H-pyrrolo[2,3-d] pyrimidine-5-carbonitrile] | 100 to 1000 nM | –
20 | COc1cc(-c2ccnn2C)ccc1Nc1nc(NC2CCOCC2)c2c(C#N)c[nH]c2n1 [Example 15, 2-((2-methoxy-4-(1-methyl-1H-pyrazol-5-yl)phenyl)amino)-4-((tetrahydro-2H-pyran-4-yl)amino)-7H-pyrrolo[2,3-d] pyrimidine-5-carbonitrile] | – | < 50 nM
21 | COCCNc1nc(Nc2ccc(-c3ccnn3C)cc2OC)nc2[nH]cc(C#N)c12 [Example 13] | – | < 50 nM
22 | CCOc1cc(-c2ccnn2C)ccc1Nc1nc(NC2CCCCC2)c2c(C#N)c[nH]c2n1 [Example 36, 4-(cyclohexylamino)-2-((2-ethoxy-4-(1-methyl-1H-pyrazol-5-yl)phenyl)amino)-7H-pyrrolo[2,3-d] pyrimidine-5-carbonitrile] | < 100 nM | –
23 | COc1cc(-c2ccnn2C)ccc1Nc1nc(NCC2CCCC2)c2c(C#N)c[nH]c2n1 [Example 8, 4-((cyclopentylmethyl)amino)-2-((2-methoxy-4-(1-methyl-1H-pyrazol-5-yl)phenyl)amino)-7H-pyrrolo[2,3-d] pyrimidine-5-carbonitrile] | – | 50 to 200 nM
